# Where two headings read alike, the source gives them in different places.
# Assay: Single and multiple dose pharmacokinetics, moderate to severe chronic renal impairment (Example 4, Table 23)
# Type: in vivo, human
# Set-up: AUC0-24 on Study Day 8 vs. AUC0-∞ on Study Day 1, Point Estimate / AUC0-24 on Study Day 8 vs. AUC0-∞ on Study Day 1, 95% Confidence Interval: unit not given beside the values
# Settings: for Cmax / Tmax / half-life / AUC(0-t) / AUC(0-inf) / fraction unbound / concentration at 24 h: human, plasma, oral; for AUC(0-t): read-out: AUC0-24; for concentration at 24 h: Study Day 9, read-out: trough concentration 24 h post dose on Study Day 8
# Description: Methodology: This was a Phase 1, open-label, single and multiple-dose, multi-center study. A sufficient number of subjects were screened to have approximately 15 subjects with moderate renal impairment (CKD Stage 3) (Group 1, Glomerular Filtration Rate (GFR) of 30-60 mL/min) and approximately 15 subjects with severe renal impairment (CKD Stage 4) (Group 2, GFR <30 mL/min, not requiring dialysis) enrolled in the study. The subjects in moderate renal impairment group received 4 μg paricalcitol capsule on Study Day 1, and 4 μg QD for 6 doses over Study Days 3-8. The subjects in severe renal impairment group received 3 μg paricalcitol capsule on Study Day 1 and 3 μg QD for 6 doses over Study Days 3-8. Each dose of study was taken orally with approximately 180 mL of water at 0800, 30 minutes after breakfast was served.
# Plasma concentrations of paricalcitol were determined using a validated liquid chromatography method with tandem mass spectrometric assay method at Abbott Laboratories, Ill.
# Pharmacokinetic: Values for the pharmacokinetic parameters of paricalcitol, including the maximum observed plasma concentration (Cmax), the time to Cmax(Tmax), the terminal phase elimination rate constant (β), half life (t1/2), area under the plasma concentration-time curve (AUC), apparent total clearance (CL/F), and apparent volume of distribution (Vdβ/F) were determined using noncompartmental methods. Values of these parameters were determined after both single (first) dose (Study Day 1) and multiple doses (Study Day 8). In addition, minimum observed plasma concentration (Cmin), accumulation index (AI), and degree of fluctuation (DFL) after multiple doses were determined for the dose on Study Day 8 (steady state).
# Pharmacokinetic: Point estimates and the corresponding 95% confidence intervals were obtained for central values of the pharmacokinetic parameters for each of the renal impairment groups. Two-sample t-test was performed to compare the pharmacokinetic parameters across the two renal impairment groups on each of Study Days 1 and 8. […] Within the framework of the analysis, the mean trough concentration values on Study Days 6, 7 and 8 were each compared to that at 24 h post Study Day 8 dose.
# An analysis of variance (ANOVA) was performed on Tmax, β, and the logarithms of AUC and Cmax to compare the single-dose and steady-state data for each of the renal impairment groups. The same test was also performed for each group for the difference between the natural logarithm of the AUC0-24 on Day 8 and the natural logarithm of the AUC0-∞ on Study Day 1. Then the point estimate and 95% confidence interval for the ratio of the central values (the central value of the AUC0-24 on Study Day 8 to that of the AUC0-∞ on Study Day 1) were obtained by exponentiating the corresponding point estimate for the difference.
# Paricalcitol capsules are under development for the prevention and treatment of secondary hyperparathyroidism in chronic kidney disease (CKD). The aim of this open-label, single and multiple dose, multi-center study was to evaluate the safety, and pharmacokinetics (PK) of paricalcitol in CKD Stage 3 (single 4 μg dose on Day 1 and 4 μg QD from Days 3-8) and CKD Stage 4 (single 3 μg dose on Day 1 and 3 μg QD from Days 3-8) subjects.
# [1] = 3 ug, severe renal impairment, 3 μg QD, Study Day 8
# [2] = 3 ug, severe renal impairment, 3 μg, Study Day 1
# [3] = 4 ug, moderate renal impairment, 4 μg QD, Study Day 8
# [4] = 4 ug, moderate renal impairment, 4 μg, Study Day 1
# [5] = 4 μg, moderate renal impairment
# [6] = moderate renal impairment, 4 μg QD, Study Day 8
# [7] = moderate renal impairment, 4 μg, Study Day 1
# [8] = severe renal impairment, 3 μg QD, Study Day 8
# [9] = severe renal impairment, 3 μg, Study Day 1
smiles,measurement,setting,value
"C[C@H](/C=C/[C@H](C)C(C)(C)O)[C@H]1CC[C@H]2/C(=C/C=C3C[C@@H](O)C[C@H](O)C3)CCC[C@]12C [Paricalcitol, 19-nor-1α,3β,25-trihydroxy-9,10-secoergosta-5(Z); 7(E),22(E)-triene]",Cmax,[1],0.097 ± 0.023 ng/mL
same,Tmax,[1],9.1 ± 5.5 h
same,half-life,"3 ug, severe renal impairment, 3 μg QD, Study Day 8, harmonic mean ± pseudo-standard deviation, read-out: t1/2 (converted)",22.9 ± 5.63 h
same,AUC(0-t),[1],1.75 ± 0.421 ng·h/mL
same,AUC(0-inf),[2],2.13 ± 0.733 ng·h/mL
same,Cmax,[2],0.065 ± 0.012 ng/mL
same,Tmax,[2],5.9 ± 3.6 h
same,half-life,"3 ug, severe renal impairment, 3 μg, Study Day 1, harmonic mean ± pseudo-standard deviation, read-out: t1/2 (converted)",19.7 ± 7.19 h
same,AUC(0-t),[2],1.02 ± 0.23 ng·h/mL
same,fraction unbound,"3 μg, severe renal impairment",0.0008 ± 0.0002
same,concentration at 24 h,"3 μg, severe renal impairment",0.057 ± 0.014 ng/mL
same,Cmax,[3],0.155 ± 0.057 ng/mL
same,Tmax,[3],4.2 ± 1.9 h
same,half-life,"4 ug, moderate renal impairment, 4 μg QD, Study Day 8, harmonic mean ± pseudo-standard deviation, read-out: t1/2 (converted)",15.5 ± 3.21 h
same,AUC(0-t),[3],2.22 ± 0.701 ng·h/mL
same,AUC(0-inf),[4],2.42 ± 0.614 ng·h/mL
same,Cmax,[4],0.113 ± 0.036 ng/mL
same,Tmax,[4],4.7 ± 2.5 h
same,half-life,"4 ug, moderate renal impairment, 4 μg, Study Day 1, harmonic mean ± pseudo-standard deviation, read-out: t1/2 (converted)",16.8 ± 2.65 h
same,AUC(0-t),[4],1.45 ± 0.407 ng·h/mL
same,fraction unbound,[5],0.0008 ± 0.0005
same,concentration at 24 h,[5],0.057 ± 0.019 ng/mL
same,half-life,"moderate and severe renal impairment (CKD Stage 3 and 4) subjects, read-out: mean half-life",16 to 23 h
same,steady state essentially reached by,"moderate and severe renal impairment subjects, QD dosing",≤ 6 Study Day
same,"AUC0-24 on Study Day 8 vs. AUC0-∞ on Study Day 1, 95% Confidence Interval",moderate renal impairment,0.8150-0.9896
same,"AUC0-24 on Study Day 8 vs. AUC0-∞ on Study Day 1, Point Estimate",moderate renal impairment,0.8981
same,CL/F,[6],2.014 ± 0.774 L/h
same,Cmax/Dose,[6],0.039 ± 0.014 ng/mL/µg
same,Cmin,[6],0.047 ± 0.018 ng/mL
same,DFL (degree of fluctuation),[6],116.77 ± 35.24%
same,Vdβ/F,[6],46.76 ± 19.35 L
same,β,[6],0.045 ± 0.009 h−^1
same,CL/F,[7],1.766 ± 0.505 L/h
same,Cmax/Dose,[7],0.028 ± 0.009 ng/mL/µg
same,Vdβ/F,[7],43.72 ± 14.45 L
same,β,[7],0.041 ± 0.007 h−^1
same,pre-dose trough concentration,"moderate renal impairment, Study Day 6",0.050 ± 0.016 ng/mL
same,pre-dose trough concentration,"moderate renal impairment, Study Day 7",0.053 ± 0.014 ng/mL
same,pre-dose trough concentration,"moderate renal impairment, Study Day 8",0.053 ± 0.019 ng/mL
same,"AUC0-24 on Study Day 8 vs. AUC0-∞ on Study Day 1, 95% Confidence Interval",severe renal impairment,0.7612-0.9227
same,"AUC0-24 on Study Day 8 vs. AUC0-∞ on Study Day 1, Point Estimate",severe renal impairment,0.8380
same,CL/F,[8],1.751 ± 0.388 L/h
same,Cmax/Dose,[8],0.032 ± 0.008 ng/mL/µg
same,Cmin,[8],0.049 ± 0.010 ng/mL
same,DFL (degree of fluctuation),[8],64.86 ± 17.79%
same,Vdβ/F,[8],61.61 ± 20.34^¥ L
same,β,[8],0.030 ± 0.007 h−^1
same,CL/F,[9],1.517 ± 0.359 L/h
same,Cmax/Dose,[9],0.022 ± 0.004 ng/mL/µg
same,Vdβ/F,[9],46.40 ± 12.45 L
same,β,[9],0.035 ± 0.013 h−^1
same,pre-dose trough concentration,"severe renal impairment, Study Day 6",0.051 ± 0.011 ng/mL
same,pre-dose trough concentration,"severe renal impairment, Study Day 7",0.050 ± 0.015 ng/mL
same,pre-dose trough concentration,"severe renal impairment, Study Day 8",0.056 ± 0.012 ng/mL

# From patent US20060009425A1, “Oral formulations of paricalcitol” (priority 2004, published 2006)
